In patent US4027039A (priority 1975, dated 1977):
Where a name gives a salt, the structure may show the parent alone.

System: Influenza, Ann Arbor virus
Experiment: Influenza Ann Arbor in mice, oral; schedule by table; late read day 5 (Tables 15, 25, 29, 30), 6 (18, 20, 22, 23, 26, 27, 28, 54), 7 (14, 19, 21, 24, 53, 56), 8 (16, 17, 51), 9 (11, 55)
Type: in vivo, mouse
Conditions: for Toxic: oral, mouse

Question: Which results are given for CN(C)N [1,1-dimethylhydrazine]?
Answer: No. animals surviving after 5-7 days (total dose 30 pg): 5; Survivors (total dose 30 pg): 0; No. animals surviving after 5-7 days (total dose 300 pg): 3; Survivors (total dose 300 pg): 0; No. animals surviving after 5-7 days (total dose 3 ng): 3; Survivors (total dose 3 ng): 1; No. animals surviving after 5-7 days (total dose 30 ng): 2; Survivors (total dose 30 ng): 0; No. animals surviving after 5-7 days (total dose 300 ng): 3; Survivors (total dose 300 ng): 0; No. animals surviving after 5-7 days (total dose 3 μg): 2; Survivors (total dose 3 μg): 0; No. animals surviving after 5-7 days (total dose 30 μg): 1; Survivors (total dose 30 μg): 1; No. animals surviving after 5-7 days (total dose 300 μg): 3; Survivors (total dose 300 μg): 0; No. animals surviving after 5-7 days (total dose 3 mg): 2; Survivors (total dose 3 mg): 0

Question: For CNNC [1,2-dimethylhydrazine, dihydrochloride], which “No. animals surviving after 5-7 days” value (total dose 30 pg) is on record?
Answer: 6

Question: What about the Survivors (total dose 30 pg) of the same compound?
Answer: 1

Question: What about the “No. animals surviving after 5-7 days” value (total dose 300 pg) of the same compound?
Answer: 2

Question: What about the Survivors (total dose 300 pg) of the same compound?
Answer: 0

Question: And the “No. animals surviving after 5-7 days” value (total dose 3 ng)?
Answer: 3

Question: And the Survivors (total dose 3 ng)?
Answer: 0

Question: What about the “No. animals surviving after 5-7 days” value (total dose 30 ng) of the same compound?
Answer: 3

Question: What about the Survivors (total dose 30 ng) of the same compound?
Answer: 1

Question: What about the “No. animals surviving after 5-7 days” value (total dose 300 ng) of the same compound?
Answer: 5

Question: What about the Survivors (total dose 300 ng) of the same compound?
Answer: 0

Question: And the “No. animals surviving after 5-7 days” value (total dose 3 μg)?
Answer: 3

Question: What about the Survivors (total dose 3 μg) of the same compound?
Answer: 0

Question: And the “No. animals surviving after 5-7 days” value (total dose 30 μg)?
Answer: 4

Question: And the Survivors (total dose 30 μg)?
Answer: 0

Question: What about the “No. animals surviving after 5-7 days” value (total dose 300 μg) of the same compound?
Answer: 6

Question: And the Survivors (total dose 300 μg)?
Answer: 0

Question: What about the “No. animals surviving after 5-7 days” value (total dose 3 mg) of the same compound?
Answer: 3

Question: And the Survivors (total dose 3 mg)?
Answer: 0

Question: Which “No. animals surviving after 5-7 days” value (total dose 3 ng) does the source give for CCC(C)=NNC(=N)N.O=[N+]([O-])O [1-(sec-butylideneamino)guanidine nitrate, 1-(sec-butylideneamino)guanidine, nitrate] here?
Answer: 0

Question: And the Survivors (total dose 3 ng)?
Answer: 0

Question: And the “No. animals surviving after 5-7 days” value (total dose 30 ng)?
Answer: 1

Question: What about the Survivors (total dose 30 ng) of the same compound?
Answer: 0

Question: What about the “No. animals surviving after 5-7 days” value (total dose 300 ng) of the same compound?
Answer: 3

Question: What about the Survivors (total dose 300 ng) of the same compound?
Answer: 2

Question: And the “No. animals surviving after 5-7 days” value (total dose 3 μg)?
Answer: 0

Question: What about the Survivors (total dose 3 μg) of the same compound?
Answer: 0

Question: What about the “No. animals surviving after 5-7 days” value (total dose 30 μg) of the same compound?
Answer: 2

Question: And the Survivors (total dose 30 μg)?
Answer: 2

Question: What about the “No. animals surviving after 5-7 days” value (total dose 300 μg) of the same compound?
Answer: 0

Question: And the Survivors (total dose 300 μg)?
Answer: 0

Question: For C=CCNC(=S)NN=C1Cc2ccccc2C1 [2-Indanone, 4-allylthiosemicarbazone], which “No. animals surviving after 5-7 days” value (total dose 30 pg) is on record?
Answer: 4

Question: And the Survivors (total dose 30 pg)?
Answer: 0

Question: What about the “No. animals surviving after 5-7 days” value (total dose 300 pg) of the same compound?
Answer: 7

Question: What about the Survivors (total dose 300 pg) of the same compound?
Answer: 0

Question: What about the “No. animals surviving after 5-7 days” value (total dose 3 ng) of the same compound?
Answer: 4

Question: And the Survivors (total dose 3 ng)?
Answer: 0

Question: And the “No. animals surviving after 5-7 days” value (total dose 30 ng)?
Answer: 6

Question: And the Survivors (total dose 30 ng)?
Answer: 0

Question: What about the “No. animals surviving after 5-7 days” value (total dose 300 ng) of the same compound?
Answer: 6

Question: What about the Survivors (total dose 300 ng) of the same compound?
Answer: 0

Question: And the “No. animals surviving after 5-7 days” value (total dose 3 μg)?
Answer: 2

Question: And the Survivors (total dose 3 μg)?
Answer: 0

Question: What about the “No. animals surviving after 5-7 days” value (total dose 30 μg) of the same compound?
Answer: 6

Question: And the Survivors (total dose 30 μg)?
Answer: 0

Question: And the “No. animals surviving after 5-7 days” value (total dose 300 μg)?
Answer: 2

Question: And the Survivors (total dose 300 μg)?
Answer: 0

Question: And the “No. animals surviving after 5-7 days” value (total dose 3 mg)?
Answer: 4

Question: And the Survivors (total dose 3 mg)?
Answer: 1

Question: With NC(=S)NN=C1Cc2ccccc2C1 [2-indanone, thiosemicarbazone] as the compound, how does the “No. animals surviving after 5-7 days” value (total dose 30 pg) read?
Answer: 8

Question: And the Survivors (total dose 30 pg)?
Answer: 1

Question: What about the “No. animals surviving after 5-7 days” value (total dose 300 pg) of the same compound?
Answer: 8

Question: What about the Survivors (total dose 300 pg) of the same compound?
Answer: 0

Question: What about the “No. animals surviving after 5-7 days” value (total dose 3 ng) of the same compound?
Answer: 5

Question: What about the Survivors (total dose 3 ng) of the same compound?
Answer: 0

Question: What about the “No. animals surviving after 5-7 days” value (total dose 30 ng) of the same compound?
Answer: 9

Question: And the Survivors (total dose 30 ng)?
Answer: 0

Question: What about the “No. animals surviving after 5-7 days” value (total dose 300 ng) of the same compound?
Answer: 8

Question: What about the Survivors (total dose 300 ng) of the same compound?
Answer: 1

Question: What about the “No. animals surviving after 5-7 days” value (total dose 3 μg) of the same compound?
Answer: 8

Question: And the Survivors (total dose 3 μg)?
Answer: 1

Question: And the “No. animals surviving after 5-7 days” value (total dose 30 μg)?
Answer: 8

Question: What about the Survivors (total dose 30 μg) of the same compound?
Answer: 0

Question: What about the “No. animals surviving after 5-7 days” value (total dose 300 μg) of the same compound?
Answer: 6

Question: What about the Survivors (total dose 300 μg) of the same compound?
Answer: 0

Question: What about the Toxic (total dose 3 mg) of the same compound?
Answer: Toxic

Question: What does the source list for CCCC(C)=NNC(N)=S [2-pentanone, thiosemicarbazone]?
Answer: No. animals surviving after 5-7 days (total dose 30 pg): 2; Survivors (total dose 30 pg): 0; No. animals surviving after 5-7 days (total dose 300 pg): 2; Survivors (total dose 300 pg): 0; No. animals surviving after 5-7 days (total dose 3 ng): 2; Survivors (total dose 3 ng): 0; No. animals surviving after 7 days (total dose 15 ng): 3; Survivors (total dose 15 ng): 0; No. animals surviving after 7 days (total dose 22.5 ng): 0; Survivors (total dose 22.5 ng): 0; No. animals surviving after 5-7 days (total dose 30 ng): 2; Survivors (total dose 30 ng): 0; No. animals surviving after 7 days (total dose 75 ng): 1; Survivors (total dose 75 ng): 0; No. animals surviving after 7 days (total dose 150 ng): 0; Survivors (total dose 150 ng): 0; No. animals surviving after 7 days (total dose 225 ng): 3; Survivors (total dose 225 ng): 0; No. animals surviving after 5-7 days (total dose 300 ng): 1; Survivors (total dose 300 ng): 0; No. animals surviving after 7 days (total dose 750 ng): 2; Survivors (total dose 750 ng): 0; No. animals surviving after 7 days (total dose 1.5 μg): 2; Survivors (total dose 1.5 μg): 0; No. animals surviving after 7 days (total dose 2.25 μg): 1; Survivors (total dose 2.25 μg): 1; No. animals surviving after 5-7 days (total dose 3 μg): 1; Survivors (total dose 3 μg): 0; No. animals surviving after 5-7 days (total dose 30 μg): 1; Survivors (total dose 30 μg): 1; No. animals surviving after 5-7 days (total dose 300 μg): 0; Survivors (total dose 300 μg): 0

Question: Which results are given for CCC(CC)=NNC(N)=S [3-pentanone, thiosemicarbazone]?
Answer: No. animals surviving after 5-7 days (total dose 30 pg): 2; Survivors (total dose 30 pg): 0; No. animals surviving after 5-7 days (total dose 300 pg): 1; Survivors (total dose 300 pg): 0; No. animals surviving after 5-7 days (total dose 3 ng): 3; Survivors (total dose 3 ng): 0; No. animals surviving after 5-7 days (total dose 30 ng): 0; Survivors (total dose 30 ng): 0; No. animals surviving after 5-7 days (total dose 300 ng): 3; Survivors (total dose 300 ng): 0; No. animals surviving after 5-7 days (total dose 3 μg): 6; Survivors (total dose 3 μg): 1; No. animals surviving after 7 days (total dose 12 μg): 1; Survivors (total dose 12 μg): 0; No. animals surviving after 7 days (total dose 18 μg): 1; Survivors (total dose 18 μg): 1; No. animals surviving after 7 days (total dose 24 μg): 0; Survivors (total dose 24 μg): 0; No. animals surviving after 5-7 days (total dose 30 μg): 7; Survivors (total dose 30 μg): 0; No. animals surviving after 7 days (total dose 60 μg): 1; Survivors (total dose 60 μg): 0; No. animals surviving after 7 days (total dose 90 μg): 3; Survivors (total dose 90 μg): 0; No. animals surviving after 7 days (total dose 120 μg): 1; Survivors (total dose 120 μg): 1; No. animals surviving after 7 days (total dose 150 μg): 2; Survivors (total dose 150 μg): 1; No. animals surviving after 5-7 days (total dose 300 μg): 4; Survivors (total dose 300 μg): 0

Question: What does the source list for CNN [Methylhydrazine, methylhydrazine]?
Answer: No. animals surviving after 5-7 days (total dose 30 pg): 2; Survivors (total dose 30 pg): 1; No. animals surviving after 5-7 days (total dose 300 pg): 3; Survivors (total dose 300 pg): 0; No. animals surviving after 5-7 days (total dose 3 ng): 3; Survivors (total dose 3 ng): 1; No. animals surviving after 5-7 days (total dose 30 ng): 4; Survivors (total dose 30 ng): 1; No. animals surviving after 5-7 days (total dose 300 ng): 1; Survivors (total dose 300 ng): 0; No. animals surviving after 5-7 days (total dose 3 μg): 3; Survivors (total dose 3 μg): 0; No. animals surviving after 5-7 days (total dose 30 μg): 3; Survivors (total dose 30 μg): 1; No. animals surviving after 5-7 days (total dose 300 μg): 1; Survivors (total dose 300 μg): 0; Toxic (total dose 3 mg): Toxic

Question: With NC(N)=S [Thiourea] as the compound, how does the “No. animals surviving after 5-7 days” value (total dose 30 pg) read?
Answer: 2

Question: What about the Survivors (total dose 30 pg) of the same compound?
Answer: 0

Question: And the “No. animals surviving after 5-7 days” value (total dose 300 pg)?
Answer: 4

Question: And the Survivors (total dose 300 pg)?
Answer: 0

Question: And the “No. animals surviving after 5-7 days” value (total dose 3 ng)?
Answer: 3

Question: And the Survivors (total dose 3 ng)?
Answer: 1

Question: And the “No. animals surviving after 5-7 days” value (total dose 30 ng)?
Answer: 4

Question: What about the Survivors (total dose 30 ng) of the same compound?
Answer: 0

Question: And the “No. animals surviving after 5-7 days” value (total dose 300 ng)?
Answer: 2

Question: What about the Survivors (total dose 300 ng) of the same compound?
Answer: 0

Question: And the “No. animals surviving after 5-7 days” value (total dose 3 μg)?
Answer: 7

Question: What about the Survivors (total dose 3 μg) of the same compound?
Answer: 0

Question: What about the “No. animals surviving after 5-7 days” value (total dose 30 μg) of the same compound?
Answer: 3

Question: What about the Survivors (total dose 30 μg) of the same compound?
Answer: 0

Question: And the “No. animals surviving after 5-7 days” value (total dose 300 μg)?
Answer: 6

Question: And the Survivors (total dose 300 μg)?
Answer: 1

Question: And the “No. animals surviving after 5-7 days” value (total dose 3 mg)?
Answer: 5

Question: What about the Survivors (total dose 3 mg) of the same compound?
Answer: 0

Question: With NC(N)=NN=Cc1c(Cl)cccc1Cl [[(2,6-dichlorobenzylidine)amino]guanidine acetate] as the compound, how does the “No. animals surviving after 5-7 days” value (total dose 30 pg) read?
Answer: 4

Question: And the Survivors (total dose 30 pg)?
Answer: 0

Question: And the “No. animals surviving after 5-7 days” value (total dose 300 pg)?
Answer: 2

Question: What about the Survivors (total dose 300 pg) of the same compound?
Answer: 1

Question: What about the “No. animals surviving after 5-7 days” value (total dose 3 ng) of the same compound?
Answer: 4

Question: What about the Survivors (total dose 3 ng) of the same compound?
Answer: 0

Question: And the “No. animals surviving after 5-7 days” value (total dose 30 ng)?
Answer: 1

Question: What about the Survivors (total dose 30 ng) of the same compound?
Answer: 0

Question: What about the “No. animals surviving after 5-7 days” value (total dose 300 ng) of the same compound?
Answer: 1

Question: And the Survivors (total dose 300 ng)?
Answer: 0

Question: And the “No. animals surviving after 5-7 days” value (total dose 3 μg)?
Answer: 2

Question: What about the Survivors (total dose 3 μg) of the same compound?
Answer: 0

Question: And the “No. animals surviving after 5-7 days” value (total dose 30 μg)?
Answer: 3

Question: And the Survivors (total dose 30 μg)?
Answer: 0

Question: And the “No. animals surviving after 5-7 days” value (total dose 300 μg)?
Answer: 1

Question: And the Survivors (total dose 300 μg)?
Answer: 0

Question: And the Toxic (total dose 3 mg)?
Answer: Toxic
